≈ marks a conversion by molar mass, not a printed value.
What was measured:
Escherichia coli [1] = experiment: Antibacterial activity against Escherichia coli ATCC25922 assessed as zone of inhibition incubated for 12 hrs by disc diffusion method; format: functional, ATCC 25922
Klebsiella pneumoniae = experiment: Antibacterial activity against Klebsiella pneumoniae ATCC 700603 assessed as reduction in microbial growth after 24 hrs by broth dilution method; format: functional
[2] = Hemolytic activity in rabbit RBC measured after 1 hrs by microplate reader assay; format: toxicity, cell-based, Oryctolagus cuniculus, Erythrocyte; details: rabbit red blood cells (RBC)
Escherichia coli [3] = experiment: Antibacterial activity against Escherichia coli ATCC25922 assessed as reduction in microbial growth after 24 hrs by broth dilution method; format: functional; details: ATCC 25922
[4] = Selectivity index, HC50 for hemolytic activity in rabbit RBC to MIC for antibacterial activity against methicillin-resistant Staphylococcus aureus ATCC 33591; format: toxicity; details: rabbit red blood cells (RBC), read-out: Selectivity Index
Staphylococcus aureus [5] = experiment: Antibacterial activity against methicillin-resistant Staphylococcus aureus ATCC 33591 assessed as MIC incubated for 12 hrs
Staphylococcus aureus [6] = experiment: Antibacterial activity against Staphylococcus aureus ATCC 6538 assessed as zone of inhibition incubated for 12 hrs by disc diffusion method; format: functional
Staphylococcus aureus [7] = experiment: Antibacterial activity against Staphylococcus aureus ATCC 6538 assessed as reduction in microbial growth after 24 hrs by broth dilution method; format: functional
Throughout, for DIZ: test concentration or dose not given here.

| SMILES | diameter of the inhibition zone (DIZ) (Escherichia coli [1]) [mm] | MIC (Klebsiella pneumoniae) [µg/mL] | HC50 at 1 h [2] [µg/mL] | MIC (Escherichia coli [3]) [µg/mL] | selectivity ratio [4] | MIC (Staphylococcus aureus [5]) [µg/mL] | diameter of the inhibition zone (DIZ) (Staphylococcus aureus [6]) [mm] | MIC (Staphylococcus aureus [7]) [µg/mL] |
| --- | --- | --- | --- | --- | --- | --- | --- | --- |
| CC(C)[C@H](N)C(=O)Nc1ccc(Cl)cc1 | 10 | 156 | > 1250 | 156 | > 16 | 78 (≈ 344 µM) | 10.9 | 78 |
| C#Cc1ccc(NC(=O)[C@@H](N)Cc2c[nH]c3ccccc23)cc1 | 6.5 | 156 | > 1250 | 156 | > 16 | 78 (≈ 257 µM) | 10 | 78 |
| CC(C)[C@H](N)C(=O)Nc1ccccc1 | – | > 1250 | – | > 1250 | – | – | – | > 1250 |
| CCCCCCNC(=O)[C@@H](N)C(C)C | 16.4 | 78 | 392 | 20 | 10 | 78 (≈ 389 µM) | 12 | 39 |
| C#Cc1cccc(NC(=O)[C@H](N)C(C)C)c1 | 10 | 20 | > 1250 | 39 | > 125 | 20 (≈ 92.5 µM) | 11.5 | 10 |
| CC(C)C(NC(=O)[C@H](N)Cc1ccccc1)C(=O)O (stereo partly drawn) | <6 | > 1250 | – | > 1250 | – | – | <6 | > 1250 |
| CC(C)[C@H](N)C(=O)Nc1ccc(F)cc1 | 6 | 312 | > 1250 | 312 | > 4 | – | 6 | 312 |
| C#Cc1ccc(NC(=O)[C@@H](N)Cc2ccccc2)cc1 | 10 | 39 | > 1250 | 39 | > 125 | 10 (≈ 37.8 µM) | 13 | 10 |
| C#Cc1ccc(NC(=O)[C@@H](N)CC(C)C)cc1 | 14.5 | 10 | 789 | 10 | 158 | 10 (≈ 43.4 µM) | 17.7 | 5 |
